Experimental data taken from patent US10335409B2 (priority 2012, dated 2019).
Where two headings read alike, the source gives them in different places.

Columns and labels:
Type in all cases: cell-based, hepatitis C virus
[1] = test system: genotype 1b (Con1) stable HCV replicon in Huh-7-derived cells; assay: Stable subgenomic HCV replicon EC50, genotype 1b (Renilla luciferase); conditions: Hepatitis C virus, stable replicon genotype 1b, 72 h, read-out: EC50 1B RLUC
Protocol: (§1) Antiviral potency (EC50) was determined in both stable subgenomic HCV replicon cell lines and transient-transfected HCV replicon cells. The term half maximal effective concentration (EC50) refers to the concentration of a drug which induces a response halfway between the baseline and maximum after the exposure time specified below.
(§2) Stable subgenomic HCV replicons for genotype 1a, 1b, 2a, 3a, and 4a were established in Huh-7-derived cells as described by Lohmann et al (Lohmann V, Korner F, Koch J, et al Replication of subgenomic hepatitis C virus RNAs in a hepatoma cell line. Science 1999; 285:119-3) Each stable cell line contains a bicistronic HCV replicon that encodes a humanized Renilla luciferase (hRLuc) reporter gene fused to a selectable neomycin-resistance gene, followed by an EMCV IRES and the NS3-NS5B coding region of HCV. […] Luciferase activity was measured as a marker for intracellular HCV replication levels.
(§3) The genotype 1a stable replicon was derived from the H77 HCV strain and contained adaptive mutations P1496L and S2204I. The genotype 1b stable replicon was derived from the Con1 HCV strain and contained adaptive mutations E1202G, T1280I and K1846T. […] The genotype 3a stable replicon was derived from the S52 HCV strain and contained adaptive mutations P1121L, A1198T and S2210I (equivalent to S2204I in genotype 1). The genotype 4a stable replicon was derived from the ED43 HCV strain and contained adaptive mutations Q1691R and S2204I. All replicon cell lines were propagated in Huh-7-derived cells and maintained in Dulbecco's modified Eagle's Medium (DMEM) supplemented with 10% fetal bovine serum (FBS) and 0.5 mg/mL G418.
(§4) To perform EC50 assays, cells from each HCV replicon were dispensed into 384-well plates. Compounds were dissolved in DMSO at a concentration of 10 mM and diluted in DMSO using an automated pipetting instrument. Three-fold serially diluted compounds were directly added to the cells using an automated instrument. […] Seventy-two hours later, cells were lysed and Renilla luciferase activity were quantified as recommended by the manufacturer (Promega-Madison, Wis.). Non-linear regression was performed to calculate EC50 values.

[2] = test system: genotype 2a (JFH-1) stable HCV replicon in Huh-7-derived cells; assay: Stable subgenomic HCV replicon EC50, genotype 2a (Renilla luciferase); conditions: Hepatitis C virus, stable replicon genotype 2a, 72 h, read-out: EC50 2A RLUC
Protocol: as §1, §2, §3, §4

[3] = test system: genotype 4a (ED43) stable HCV replicon in Huh-7-derived cells; assay: Stable subgenomic HCV replicon EC50, genotype 4a (Renilla luciferase); conditions: Hepatitis C virus, 72 h, read-out: EC50 4A RLUC
Protocol: as §1, §2, §3, §4

[4] = test system: genotype 3a (S52) wild type transient HCV replicon in Huh-7-derived cells; assay: Transient-transfected HCV replicon EC50, genotype 3a wild type; conditions: Hepatitis C virus; transient-transfected replicon genotype 3a wild type, 72 h; read-out: EC50 3A WT
[5] = test system: genotype 3a (S52) stable HCV replicon in Huh-7-derived cells; assay: Stable subgenomic HCV replicon EC50, genotype 3a (Renilla luciferase); conditions: Hepatitis C virus, 72 h, read-out: EC50 3A RLUC
Protocol: as §1, §2, §3, §4

[6] = test system: genotype 1a (H77) stable HCV replicon in Huh-7-derived cells; assay: Stable subgenomic HCV replicon EC50, genotype 1a (Renilla luciferase); conditions: Hepatitis C virus, stable replicon genotype 1a, 72 h, read-out: EC50 1A RLUC
Protocol: as §1, §2, §3, §4

[7] = test system: genotype 1b NS3/4a protease inhibitor resistant variant D168A transient HCV replicon in Huh-7-derived cells; assay: Transient-transfected HCV replicon EC50, genotype 1b D168A; conditions: Hepatitis C virus, 72 h, read-out: EC50 1B D168A, transient-transfected replicon genotype 1b D168A resistant variant, 72 h
[8] = test system: genotype 1b (Con1) wild type transient HCV replicon in Huh-7-derived cells; assay: Transient-transfected HCV replicon EC50, genotype 1b wild type; conditions: Hepatitis C virus, 72 h, read-out: EC50 1B WT
[9] = test system: genotype 1a NS3/4a protease inhibitor resistant variant R155K transient HCV replicon in Huh-7-derived cells; assay: Transient-transfected HCV replicon EC50, genotype 1a R155K; conditions: Hepatitis C virus, 72 h, read-out: EC50 1A R155K, transient-transfected replicon genotype 1a R155K resistant variant, 72 h
[10] = test system: genotype 1a (H77) wild type transient HCV replicon in Huh-7-derived cells; assay: Transient-transfected HCV replicon EC50, genotype 1a wild type; conditions: Hepatitis C virus, 72 h, read-out: EC50 1A WT
[11] = transient-transfected replicon genotype 1b wild type
[12] = transient-transfected replicon genotype 1a wild type

Compound	EC50 [1]	EC50 [2]	EC50 [3]	EC50 [4]	EC50 [5]	EC50 [6]	EC50 [7]	EC50 [8, 11]	EC50 [9]	EC50 [10, 12]	EC50 [8]	EC50 [10]
CC[C@@H]1[C@@H]2CN(C(=O)[C@H](C(C)(C)C)NC(=O)O[C@@H]3C[C@H]3CCCCC(F)c3nc4ccc(OC)cc4nc3O2)[C@@H]1C(=O)N[C@]1(C(=O)NS(=O)(=O)C2(C)CC2)C[C@H]1C(F)F (stereo partly drawn) [Example 90, (1aR,5S,8S,9S,10R,22aR)-5-tert-butyl-N-[(1R,2R)-2-(difluoromethyl)-1-{[(1-methylcyclopropyl)sulfonyl]carbamoyl}cyclopropyl]-9-ethyl-18-fluoro-14-methoxy-3,6-dioxo-1,1a,3,4,5,6,9,10,18,19,20,21,22,22a-tetradecahydro-8H-7,10-methanocyclopropa[18,19][1,10,3,6]dioxadiazacyclononadecino[11,12-b]quinoxaline-8-carboxamide]	0.0096 µM	0.0088 µM	0.0104 µM	0.043 µM	0.114 µM	0.012 µM	–	–	–	–	–	–
COc1ccc2nc3c(nc2c1)O[C@H]1CN(C(=O)[C@H](C(C)(C)C)NC(=O)O[C@@H]2C[C@H]2CCCCC3)[C@H](C(=O)N[C@]2(C(=O)NS(=O)(=O)C3CC3)C[C@H]2CC(F)F)[C@@H]1C [Example 24, (1aR,5S,8S,9S,10R,22aR)-5-tert-butyl-N-[(1R,2S)-1-[(cyclopropylsulfonoyl)carbamoyl]-2-(2,2-difluoroethyl)cyclopropyl]-14-methoxy-9-methyl-3,6-dioxo-1,1a,3,4,5,6,9,10,18,19,20,21,22,22a-tetradecahydro-8H-7,10-methanocyclopropa[18,19][1,10,3,6]dioxadiazacyclononadecino[11,12-b]quinoxaline-8-carboxamide]	0.0075 µM	0.02 µM	0.0092 µM	–	0.663 µM	0.012 µM	0.284 µM	0.0032 µM	0.049 µM	0.0093 µM	–	–
CC[C@@H]1[C@@H]2CN(C(=O)[C@H](C3CCCC3)NC(=O)O[C@@H]3C[C@H]3CCCCCc3nc4ccc(OC)cc4nc3O2)[C@@H]1C(=O)N[C@]1(C(=O)NS(=O)(=O)C2CC2)C[C@H]1C(F)F [Example 15, (1aR,5S,8S,9S,10R,22aR)-5-cyclopentyl-N-[(1R,2R)-1-[(cyclopropylsulfonyl)carbamoyl]-2-(difluoromethyl)cyclopropyl]-9-ethyl-14-methoxy-3,6-dioxo-1,1a,3,4,5,6,9,10,18,19,20,21,22,22a-tetradecahydro-8H-7,10-methanocyclopropa[18,19][1,10,3,6]dioxadiazacyclononadecino[11,12-b]quinoxaline-8-carboxamide]	0.0068 µM	0.0098 µM	0.0078 µM	–	0.55 µM	0.011 µM	0.182 µM	–	0.02 µM	–	0.003 µM	0.0065 µM
CC[C@@H]1C[C@]1(NC(=O)[C@@H]1[C@H](C)[C@@H]2CN1C(=O)[C@H](C(C)(C)C)NC(=O)O[C@@H]1C[C@H]1CCCCCc1nc3ccc(OC)cc3nc1O2)C(=O)NS(=O)(=O)C1(C)CC1 [Example 21, (1aR,5S,8S,9S,10R,22aR)-5-tert-butyl-N-[(1R,2R)-2-ethyl-1-{[(1-methylcyclopropyl)sulfonyl]carbamoyl}cyclopropyl]-14-methoxy-9-methyl-3,6-dioxo-1,1a,3,4,5,6,9,10,18,19,20,21,22,22a-tetradecahydro-8H-7,10-methanocyclopropa[18,19][1,10,3,6]dioxadiazacyclononadecino[11,12-b]quinoxaline-8-carboxamide]	0.0047 µM	0.012 µM	0.0062 µM	–	0.263 µM	0.0068 µM	0.07 µM	–	0.015 µM	–	0.0038 µM	0.0041 µM
COc1ccc2nc3c(nc2c1)O[C@H]1CN(C(=O)[C@H](C(C)(C)C)NC(=O)O[C@@H]2CCC[C@H]2CCCCC3)[C@H](C(=O)N[C@]2(C(=O)NS(=O)(=O)C3CC3)C[C@H]2C(F)F)[C@@H]1C [Example 28, (3aR,7S,10S,11S,12R,24aR)-7-tert-butyl-N-[(1R,2R)-1-[(cyclopropylsulfonyl)carbamoyl]-2-(difluoromethyl)cyclopropyl]-16-methoxy-11-methyl-5,8-dioxo-1,2,3,3a,5,6,7,8,11,12,20,21,22,23,24,24a-hexadecahydro-10H-9,12-methanocyclopenta[18,19][1,10,3,6]dioxadiazacyclononadecino[11,12-b]quinoxaline-10-carboxamide]	0.0046 µM	0.0062 µM	0.0041 µM	–	0.266 µM	0.0067 µM	0.054 µM	0.0034 µM	0.009 µM	0.003 µM	–	–
CC[C@@H]1C[C@]1(NC(=O)[C@@H]1[C@H](C)[C@@H]2CN1C(=O)[C@H](C(C)(C)C)NC(=O)O[C@@H]1C[C@H]1CCCCCc1nc3ccc(OC)cc3nc1O2)C(=O)NS(=O)(=O)C1CC1 [Example 20, (1aR,5S,8S,9S,9S,10R,22aR)-5-tert-butyl-N-{(1R,2R)-1-[(cyclopropylsulfonyl)carbamoyl]-2-ethylcyclopropyl}-14-methoxy-9-methyl-3,6-dioxo-1,1a,3,4,5,6,9,10,18,19,20,21,22,22a-tetradecahydro-8H-7,10-methanocyclopropa[18,19][1,10,3,6]dioxadiazacyclononadecino[11,12-b]quinoxaline-8-carboxamide]	0.0052 µM	0.019 µM	0.0059 µM	–	0.392 µM	0.0081 µM	0.09 µM	–	0.017 µM	–	0.0027 µM	0.0034 µM
CC[C@@H]1[C@@H]2CN(C(=O)[C@H](C(C)(C)C)NC(=O)O[C@@H]3CCC[C@H]3CCCCCc3nc4ccc(OC)cc4nc3O2)[C@@H]1C(=O)N[C@]1(C(=O)NS(=O)(=O)C2(C)CC2)C[C@H]1C(F)F [Example 6, (3aR,7S,10S,11S,12R,24aR)-7-tert-butyl-N-[(1R,2R)-2-(difluoromethyl)-1-{[(1-methylcyclopropyl)sulfonyl]carbamoyl}cyclopropyl]-11-ethyl-16-methoxy-5,8-dioxo-1,2,3,3a,5,6,7,8,11,12,20,21,22,23,24,24a-hexadecahydro-10H-9,12-methanocyclopenta[18,19][1,10,3,6] dioxadiazacyclononadecino[11,12-b]quinoxaline-10-carboxamide]	0.036 µM	0.034 µM	0.034 µM	–	1.36 µM	0.035 µM	0.216 µM	0.011 µM	0.058 µM	0.026 µM	–	–
